These results are taken from PMC5368959, “Uricosuric targets of tranilast” (Pharmacology Research & Perspectives, 2017).

Series [1] concerns the target T1, NPT1 (Homo sapiens, UniProt Q14916).
T1 sequence (Q14916 1-467): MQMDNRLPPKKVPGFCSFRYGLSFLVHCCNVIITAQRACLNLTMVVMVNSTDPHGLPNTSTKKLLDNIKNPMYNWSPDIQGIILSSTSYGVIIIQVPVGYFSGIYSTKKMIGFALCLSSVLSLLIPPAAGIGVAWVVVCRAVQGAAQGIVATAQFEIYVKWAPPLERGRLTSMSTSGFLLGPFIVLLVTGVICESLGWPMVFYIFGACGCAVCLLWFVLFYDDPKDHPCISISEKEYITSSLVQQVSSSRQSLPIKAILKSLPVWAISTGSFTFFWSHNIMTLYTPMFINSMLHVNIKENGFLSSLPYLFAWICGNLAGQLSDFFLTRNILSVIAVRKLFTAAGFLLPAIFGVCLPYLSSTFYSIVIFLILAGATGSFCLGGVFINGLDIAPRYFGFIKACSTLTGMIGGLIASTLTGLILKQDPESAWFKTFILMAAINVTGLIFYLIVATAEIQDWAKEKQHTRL
The series can be described thus: [14C]-urate uptake by NPT1-expressing Xenopus oocytes. The series is classed as cell-based. The method, then: (§1) For uptake experiments, oocytes were washed four times with ND96 medium (pH 7.4) without pyruvate and gentamycin.
The uptake of [^14C]‐urate by NPT1‐expressing oocytes was performed in ND96 medium (pH 7.4) at ~25°C for 1 h. […] Data are mean ± S.E. with n = 12–15.

Series [2] addresses T2, OAT4 (Homo sapiens, UniProt Q9NSA0).
T2 sequence (Q9NSA0 1-550): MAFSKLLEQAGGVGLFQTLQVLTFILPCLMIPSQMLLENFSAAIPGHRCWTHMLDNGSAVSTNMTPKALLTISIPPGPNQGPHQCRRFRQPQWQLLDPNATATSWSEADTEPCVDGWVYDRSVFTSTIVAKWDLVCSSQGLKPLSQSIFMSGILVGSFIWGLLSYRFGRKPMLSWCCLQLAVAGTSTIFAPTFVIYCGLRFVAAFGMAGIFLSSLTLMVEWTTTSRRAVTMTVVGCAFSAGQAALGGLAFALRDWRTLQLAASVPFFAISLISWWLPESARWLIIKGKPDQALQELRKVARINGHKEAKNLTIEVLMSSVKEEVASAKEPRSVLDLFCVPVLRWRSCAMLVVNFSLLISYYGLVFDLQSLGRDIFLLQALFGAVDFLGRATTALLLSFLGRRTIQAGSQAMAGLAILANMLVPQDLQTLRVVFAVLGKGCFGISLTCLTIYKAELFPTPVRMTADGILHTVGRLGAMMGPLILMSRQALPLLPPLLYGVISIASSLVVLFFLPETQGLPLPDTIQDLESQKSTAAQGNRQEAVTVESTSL
The series can be described thus: [14C]-urate uptake by OAT4-expressing Xenopus oocytes. The series is classed as cell-based. To be noted: for Inhibition of OAT4-mediated urate uptake: drug 100 μmol/L. The method, then: as §1
(A) The uptake of [^14C]‐urate by OAT4‐expressing oocytes was performed in ND96 medium (pH 7.4) at ~25°C for 1 h. Na^+‐dependence was examined by replacing extracellular NaCl by KCl. […] (B) The inhibition of [^14C]‐urate uptake by OAT4 was examined in the presence of extracellular organic anions (for cis‐inhibition) or uricosuric drugs at the indicated concentrations. […] Data are mean ± S.E. with n = 12–15.

Series [3] has as its target T3, ABCG2 (Homo sapiens, UniProt Q9UNQ0).
T3 sequence (Q9UNQ0 1-655): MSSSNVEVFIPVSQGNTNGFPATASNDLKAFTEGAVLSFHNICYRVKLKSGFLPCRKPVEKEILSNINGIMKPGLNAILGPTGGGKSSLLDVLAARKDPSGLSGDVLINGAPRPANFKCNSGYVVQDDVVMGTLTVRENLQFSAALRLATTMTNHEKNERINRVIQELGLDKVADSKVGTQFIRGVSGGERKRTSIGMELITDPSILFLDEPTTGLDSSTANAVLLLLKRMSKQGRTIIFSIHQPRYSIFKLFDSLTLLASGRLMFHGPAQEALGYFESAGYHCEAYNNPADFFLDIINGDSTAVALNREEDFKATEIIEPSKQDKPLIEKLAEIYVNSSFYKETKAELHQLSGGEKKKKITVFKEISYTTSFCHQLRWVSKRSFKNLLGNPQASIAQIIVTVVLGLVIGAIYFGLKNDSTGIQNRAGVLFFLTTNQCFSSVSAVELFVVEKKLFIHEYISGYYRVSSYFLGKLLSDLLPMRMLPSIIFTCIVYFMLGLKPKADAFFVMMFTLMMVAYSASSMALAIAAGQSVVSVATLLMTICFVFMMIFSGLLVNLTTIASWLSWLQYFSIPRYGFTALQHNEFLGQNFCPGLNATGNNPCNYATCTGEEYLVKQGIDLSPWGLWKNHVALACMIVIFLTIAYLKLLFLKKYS
In words: [14C]-urate efflux from ABCG2-expressing Xenopus oocytes.
Protocol: In brief, a small incision was made in the abdomen and a lobe of ovary was removed. […] Oocytes were then defolliculated by treatment with 3.5 mg/mL collagenase A (Roche, Indianapolis, IN) in Ca^2+‐free ND96 medium for 60–70 min with gentle agitation at room temperature (25°C).
The indicated full‐length cDNAs were subcloned into the pGEMHE oocyte expression plasmid, 3′ of a T7 promoter and flanked by Xenopus laevis‐specific 5′‐ and 3′‐UTRs. Plasmid DNA was linearized at the 3′‐end of cDNAs by Not1, Nhe1, or EcoR1 digestion, and cRNA was in vitro transcribed by using T7 RNA polymerase (mMESSAGE mMACHINE; Ambion, Austin, TX) following the suppliers protocol. Isopropanol‐precipitated, in vitro transcribed capped cRNA was washed with 70% ethanol, dried and then dissolved in sterile nuclease‐free water. The yield and RNA integrity of the capped cRNA samples were assessed by spectroscopy (at 260 nm) and 1% agarose‐formaldehyde gel electrophoresis, respectively. All cRNA samples were stored frozen in aliquots at −80°C until used. About 18 h after isolation, oocytes were injected with 50 nL of sterile water, 50 mmol/L tris pH 7.4, or 50 nL of a cRNA solution in 50 mmol/L tris buffer (pH 7.4) containing 25 ng of the indicated cRNA using fine‐tipped micropipettes by a microinjector (World Precision Instrument Inc. Sarasota, FL).
Preinjected oocytes were then incubated in ND96 medium for 1 h at 16°C for recovery. After incubation, the oocytes were washed in cold ND96 medium four times to remove any external adhering [^14C]‐urate from the oocytes and then subjected to efflux for 1 h at room temperature (~25°C) in ND96 medium (pH 7.4) in the absence or presence of drug.
Radioisotope content of each individual oocyte was measured by scintillation counter after solubilization in 0.3 mL of 10% (v/v) SDS and addition of 2.5 mL of scintillation fluid. […] Statistical analyses including linear regressions were done using SigmaPlot software.
We investigated the effect of tranilast (added in the efflux assay medium) on the [^14C]‐urate efflux activity of ABCG2 expressed in Xenopus laevis oocytes. […]

In series [4] the target is OAT10 (Homo sapiens, UniProt Q9Y226). In words: [14C]-urate uptake by OAT10-expressing Xenopus oocytes. The format is cell-based. Particulars: for Inhibition of OAT10-mediated urate uptake: drug 100 μmol/L, PZA-preloaded oocytes.
Sequence of OAT10 (Q9Y226 whole entry): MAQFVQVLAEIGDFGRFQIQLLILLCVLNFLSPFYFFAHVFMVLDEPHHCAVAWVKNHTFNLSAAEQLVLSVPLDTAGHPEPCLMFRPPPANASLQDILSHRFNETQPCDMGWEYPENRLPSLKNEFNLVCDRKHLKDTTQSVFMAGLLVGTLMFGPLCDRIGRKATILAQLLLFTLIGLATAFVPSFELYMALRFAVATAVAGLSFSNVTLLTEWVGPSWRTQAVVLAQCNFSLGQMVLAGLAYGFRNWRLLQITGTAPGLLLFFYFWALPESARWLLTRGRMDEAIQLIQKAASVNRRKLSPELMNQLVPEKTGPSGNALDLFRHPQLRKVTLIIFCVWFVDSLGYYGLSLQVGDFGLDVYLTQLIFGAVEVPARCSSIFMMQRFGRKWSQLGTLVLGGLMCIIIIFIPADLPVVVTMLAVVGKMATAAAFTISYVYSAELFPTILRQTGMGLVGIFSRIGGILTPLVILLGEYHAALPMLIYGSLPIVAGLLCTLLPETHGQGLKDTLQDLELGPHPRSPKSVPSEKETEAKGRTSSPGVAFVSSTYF
Source text: as §1
(A) Time course of [^14C]‐urate uptake by control and […] oocytes. […] Inset, western blot analysis of OAT10 protein expressed in oocytes. […] (C) [^14C]‐urate transport properties of OAT10: voltage sensitivity and Na+‐dependence was examined by replacing extracellular NaCl by KCl or LiCl. Existence of urate/Cl^− exchange mechanism or Cl^− dependence or cis‐inhibitory effects of extracellular Cl^− on was verified by [^14C]‐urate uptake via OAT10 in the absence of extracellular Cl^− ion (0 Cl^−). In 0 Cl^− bath, NaCl was replaced by Na‐gluconate (Na‐Gluc), KCl by K‐gluconate (K‐Gluc), MgCl2 by Mg‐gluconate, and CaCl2 by Ca‐gluconate. […] Data are mean ± S.E. with n = 12–15.

Where [5] appears, read: human, Xenopus laevis oocytes expressing ABCG2, pH 7.4, probe [14C]-urate.

SMILES strings stand for the structures. Read-outs that look alike come from different tables or passages of the source.

The inhibition is the share of the control response that was lost under treatment. In the case of `CCCN(CCC)S(=O)(=O)c1ccc(C(=O)O)cc1` [probenecid], in series [1] (drug 1.0 mmol/L), the “Inhibition of NPT1-mediated urate uptake” value is “only partially inhibited”. Besides, the figures for the inhibition at 1000 µM in series [2] (read-out: Inhibition of OAT4-mediated urate uptake) and in series [4] (read-out: Inhibition of OAT10 urate transport activity) were 80% and approximately 65%, respectively. For the same compound, the inhibition at 1 h, 1 mmol/L in series [3] (setting [5]) was approximately 20%.
As usually defined, the IC50 is the concentration at which inhibition is half-maximal. On to `COc1ccc(C=CC(=O)Nc2ccccc2C(=O)O)cc1OC` [tranilast, N‐(3,4‐dimethoxycinnamoyl) anthranilic acid], for which the IC50 was approximately 18.9 µM in series [1] (data not shown, read-out: IC50, [14C]-urate uptake by NPT1); approximately 22 µM in series [2] (data not shown); approximately 31 µM in series [4] (data not shown, read-out: IC50, [14C]-urate uptake by OAT10). Further, in series [1] (drug 100 μmol/L), the “Inhibition of NPT1-mediated urate uptake” value is “effectively inhibited”. In addition, in series [2], the “Inhibition of OAT4-mediated urate uptake” value is given as “very efficiently inhibited”. Also, the “Effect on ABCG2-mediated urate efflux” value in series [3] (drug 100 μmol/L, efflux 1 h) is “remained unaffected”. The “Inhibition of OAT10-mediated urate uptake” value in series [4] is listed as “very efficiently inhibited”.
As for `CCc1oc2ccccc2c1C(=O)c1cc(Br)c(O)c(Br)c1` [benzbromarone], the IC50 in series [1] was approximately 17.1 µM. The “Inhibition of NPT1-mediated urate uptake” value in series [1] (drug 100 μmol/L) is “effectively inhibited”. Also, the “Inhibition of OAT4-mediated urate uptake” value in series [2] was “very efficiently inhibited”. For the same compound, the inhibition at 1 h, 100 μmol/L in series [3] (setting [5]) was approximately 48%. Further, in series [4], the IC50 is approximately 20 µM and the “Inhibition of OAT10-mediated urate uptake” value is on record as “very efficiently inhibited”.
